{"source": "paper PMC11239005", "about": "“Preclinical studies of RA475, a guanidine-substituted spirocyclic candidate RPN13/ADRM1 inhibitor for treatment of ovarian cancer” (PLOS ONE, 2024)", "key": {"RPN13": {"biological_target": "T1, RPN13 (Homo sapiens, UniProt Q16186)", "T1 construct": "performed the labeling assay after treating ovarian cancer cell lysates (ES2 and SKOV3) in the presence of titrated doses of RA475; endogenous in cells; host or cells: ES2 and SKOV3 ovarian cancer cell lysates", "T1 sequence (Q16186 whole entry)": "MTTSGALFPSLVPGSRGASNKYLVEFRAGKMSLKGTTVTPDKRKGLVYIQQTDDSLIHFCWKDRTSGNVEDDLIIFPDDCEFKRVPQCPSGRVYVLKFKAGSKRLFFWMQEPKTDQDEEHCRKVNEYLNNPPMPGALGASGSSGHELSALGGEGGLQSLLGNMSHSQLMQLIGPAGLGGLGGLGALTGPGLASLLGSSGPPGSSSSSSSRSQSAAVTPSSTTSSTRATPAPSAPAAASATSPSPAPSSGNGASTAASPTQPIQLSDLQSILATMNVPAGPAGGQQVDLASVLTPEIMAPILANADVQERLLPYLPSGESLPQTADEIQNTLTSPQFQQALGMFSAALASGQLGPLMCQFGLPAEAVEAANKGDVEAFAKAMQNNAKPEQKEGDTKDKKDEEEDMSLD", "experiment": "Up284B competition labelling in ES2 and SKOV3 cell lysate", "assay_type": "binding", "conditions": "titrated RA475, bortezomib 1 μM, Up284B 5 μM", "method": "Clarified cell lysate in MPER buffer (Pierce) was pretreated with streptavidin-coated magnetic beads for 45 min at 4°C to deplete non-specific biotinylated proteins in the cell lysate. […] Next, the samples were mixed with Laemmli sample buffer (BioRad) and boiled for 5 min. The proteins were separated using a 4–15% Bio-Rad Mini-PROTEAN SDS-PAGE gel (1 h at 100 V), and transferred to PVDF membrane overnight at 4°C (24 V). The membrane was blocked with 5% (w/v) BSA in phosphate buffered saline containing 0.1% (v/v) Tween 20 (PBST) for 1 h at RT, and washed for 20 min (3X with PBST). Then the membrane was probed with HRP-streptavidin (1:10,000 in PBST) for 1 h at RT, washed for 30 min (3X with PBST), and developed using HyGLO chemiluminescent detection reagent (Denville) and visualized using a Biorad Chemidoc imager.\nFig 2 RA475 binds to RPN13 and induces rapid apoptosis. […] C, D) RA475 competition labelling experiment. C) ES2 D) SKOV3 clarified cell lysate (40 μg/sample) in MPER buffer was pretreated with streptavidin-coated magnetic beads for 45 min at 4°C to deplete non-specific biotinylated proteins in the cell lysate. […] Next, the samples were mixed with Laemmli sample buffer (BioRad) and boiled for 5 min. The proteins were separated using a 4–15% Bio-Rad Mini-PROTEAN SDS-PAGE gel (1 h at 100 V), and transferred to PVDF membrane overnight at 4°C (24 V). […]"}, "[1]": {"tested_on": "high molecular weight polyubiquitinated proteins in OVCAR3 cells", "experiment": "Anti-ubiquitin immunoblot, OVCAR3", "assay_type": "cell-based, human", "conditions": "Up284 0.5 μM, bortezomib 0.25 μM, ixazomib 0.25 μM, RA475 0.5 or 1 μM", "excerpt": "Cell lysate prepared in MPER (Pierce) from each sample was normalized by total protein concentration using the bicinchoninic acid assay and bovine serum albumin standards. Normalized samples were subjected to SDS-PAGE, transferred to PVDF membranes and analyzed by Western blot using antibodies specific to ubiquitin (P4D1, sc-8017, Santa Cruz), PARP (#9542, […]), actin (#66009, Protein Tech Group), Tubulin(#66031, Protein Tech Group), ADRM1/RPN13 (D9Z1U, #12019, Cell Signaling), USP14 (Cell Signal, # 8159), Annexin V (#559763, BD Pharmingen), and for secondary antibodies we utilized either horseradish peroxidase (HRP)-linked anti-mouse IgG or anti-rabbit IgG (GE Healthcare UK Ltd), HRP-linked streptavidin (N100, Thermo Fisher) at the recommended dilution (1:5000).\nAccumulation of high molecular weight polyubiquitinated proteins (polyUb) is a classical phenomenon of proteasome function inhibition due to the stabilization of its substrate.\nFig 3 Impact of RA475 on proteasome function. […] Actin was used as loading control. […] C) 4T1 and HCC1806 cells stably expressing 4UbFL were treated with compounds at indicated doses for 4 h and imaged by IVIS200 after the addition of luciferin substrate (50 μL, 7mg/mL in PBS). D) Sub-confluent cultures of ES2 cells stably expressing 4UbFL were seeded at 10,000 cells/well in 96-well microtiter plates. At 18 h post transfection, cells were treated with compounds or vehicle (DMSO) at the doses indicated. After a 4 h incubation, the cells were lysed and the luciferase activity in each cell lysate was determined with a luciferase assay kit (Promega) according to the manufacturer’s instructions. Bioluminescence was measured by using a luminometer (Glomax Multidetection system, Promega) E) A patch was shaved of hair on one leg of CD-1 mice, and 10 μg 4UbFL plasmid in 20 μL of PBS was injected into the quadriceps femoralis muscle followed immediately by injection of the 2 Needle Array to 5 mm depth encompassing the injection site and square wave electroporation (ElectroSquarePorator 833, BTX-2 Needle array 5mm gap, Harvard apparatus) delivered as eight pulses at 106V for 20 ms with 200 ms intervals. One day post electroporation, mice were anesthetized with isoflurane, injected IP with luciferin (0.3 mg in 100 μL water) and optical imaging was performed to determine basal level luciferase expression. Images were acquired for 10 min with a Xenogen IVIS 200 (Caliper, Hopkinton, MA). Equally sized areas were analyzed using Living Image 2.20 software. Mice were imaged weekly during treatment. […]"}, "[2]": {"conditions": "cited from earlier work"}}, "data": [{"smiles": "CC(C)C[C@H](NC(=O)[C@H](Cc1ccccc1)NC(=O)c1cnccn1)B(O)O", "note": "[bortezomib]", "values": [{"measurement": "competition with Up284B for binding to RPN13", "setting": "RPN13", "result": "no impact"}, {"measurement": "forms of polyUb induced", "setting": "[1]", "result": "only induced the smaller poly Ub forms, typically <250kDa"}, {"measurement": "concentration in human cerebrospinal fluid and murine brain tissue, % of serum concentrations", "setting": "[2]", "result": "5–7%"}]}]}
